In patent publication US20240366612A1, “COMPOUNDS AND METHODS FOR MODULATING NUCLEIC ACID SPLICING” (REMIX THERAPEUTICS INC., priority 2021, published 2024):

Assays:
SMN2 CJ mRNA = assay: Gene panel canonical junction qPCR assay, SMN2; assay type: cell-based; conditions: Homo sapiens, larger gene panel, read-out: SMN2 IC50 (decrease in CJ mRNA levels)
Method in brief: (§1)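 A673 or K562 cells treated 24 h with 11-point 3-fold dilutions (top 10 µM, ≤0.25% DMSO) at 37 °C. Canonical exon-junction mRNA measured by probe-based RT-qPCR, normalized to GAPDH, GUSB or PPIA and DMSO (2^−ΔΔCt), converted to percent response over a fixed ΔCt window; IC50 from 4-parameter fit.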

MYB mRNA = assay: Splicing RT-qPCR assay, MYB canonical (CJ) and alternative (AJ) junction mRNA; assay type: cell-based; conditions: Homo sapiens, A673 or K562 cells, 24 hours treatment; for IC50: decrease in CJ mRNA; for AC50: increase in AJ mRNA
Method in brief: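 Compound-treated A673 or K562 cells (11-point 3-fold dilution, top dose 10 uM final, DMSO ≤0.25%) were incubated for 24 h at 37° C. Lysates underwent one-step RT-qPCR for canonical and alternative-exon junction isoforms. Normalization used PPIA for A673 and GAPDH or GUSB for K562.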

[1] = Cell Titer Glo 2.0 cell viability assay; conditions: human, K562 cells
MYB CJ mRNA = assay: Gene panel canonical junction qPCR assay, MYB; assay type: cell-based; conditions: Homo sapiens, larger gene panel, read-out: MYB IC50 (decrease in CJ mRNA levels)
Method in brief: as §1

Work on `Cc1nc(-c2cc3ncn(C4CCNCC4)c(=O)c3s2)cc2cn(C)nc12` [Compound 271] yielded an IC50 (SMN2 CJ mRNA) of less than 100 nM, an IC50 (MYB mRNA) of 100 to 1000 nM and an AC50 (MYB mRNA) of 1000 to 10000 nM. The GI50 at 72 h [1] was 1000 to 10000 nM and the IC50 (MYB CJ mRNA) was 100 to 1000 nM.
Work on `Cc1cn2cc(-c3cc4ncn(C5CCNCC5(F)F)c(=O)c4s3)cc(F)c2n1` (centres unmarked) [Compound 274, 3-(3,3-difluoropiperidin-4-yl)-6-{8-fluoro-2-methylimidazo[1,2-a]pyridin-6-yl}thieno[3,2-d]pyrimidin-4-one] yielded an IC50 (SMN2 CJ mRNA) of 1000 to 10000 nM, an IC50 (MYB mRNA) greater than 10000 nM and an AC50 (MYB mRNA) greater than 10000 nM. The GI50 at 72 h [1] was greater than 10000 nM and the IC50 (MYB CJ mRNA) was greater than 10000 nM.
`Cc1cn2cc(-c3cc4ncn(C5CCCNCC5)c(=O)c4s3)cc(F)c2n1` (centres unmarked) [Compound 275, 3-(azepan-4-yl)-6-{8-fluoro-2-methylimidazo[1,2-a]pyridin-6-yl}thieno[3,2-d]pyrimidin-4-one] gave an IC50 (SMN2 CJ mRNA) of less than 100 nM, an IC50 (MYB mRNA) of 100 to 1000 nM and an AC50 (MYB mRNA) of 100 to 1000 nM. For the same compound, the GI50 at 72 h [1] was 100 to 1000 nM and the IC50 (MYB CJ mRNA) was 100 to 1000 nM.
With `Cc1cn2cc(-c3cc4ncn(C5=CCNCC5)c(=O)c4s3)cc(F)c2n1` [Compound 276, 6-{8-fluoro-2-methylimidazo[1,2-a]pyridin-6-yl}-3-(1,2,3,6-tetrahydropyridin-4-yl)thieno[3,2-d]pyrimidin-4-one] the IC50 (SMN2 CJ mRNA) was less than 100 nM, the IC50 (MYB mRNA) was 100 to 1000 nM and the AC50 (MYB mRNA) was 100 to 1000 nM. The GI50 at 72 h [1] was 100 to 1000 nM and the IC50 (MYB CJ mRNA) was 100 to 1000 nM.
Compound `Cc1cn2cc(-c3cc4ncn(C5CNCCC5=O)c(=O)c4s3)cc(F)c2n1` (centres unmarked) [Compound 279, 3-(6-{8-fluoro-2-methylimidazo[1,2-a]pyridin-6-yl}-4-oxothieno [3,2-d]pyrimidin-3-yl)piperidin-4-one] has an IC50 (SMN2 CJ mRNA) greater than 10000 nM, an IC50 (MYB mRNA) greater than 10000 nM and an AC50 (MYB mRNA) greater than 10000 nM. For the same compound, the GI50 at 72 h [1] was greater than 10000 nM and the IC50 (MYB CJ mRNA) was greater than 10000 nM.
Compound `Cc1cn2cc(N3CCc4cc(C5CCNCC5)sc4C3=O)cc(F)c2n1` [Compound 800, 6-[8-fluoro-2-methylimidazo[1,2-a]pyridin-6-yl]-2-(piperidin-4-yl)-4H,5H-thieno[2,3-c]pyridin-7-one] has an IC50 (SMN2 CJ mRNA) greater than 10000 nM, an IC50 (MYB mRNA) greater than 10000 nM and an AC50 (MYB mRNA) greater than 10000 nM. For the same compound, the GI50 at 72 h [1] was greater than 10000 nM and the IC50 (MYB CJ mRNA) was greater than 10000 nM.
In the case of `Cc1cn2cc(-n3ccc4cc(C5CCNCC5)sc4c3=O)cc(F)c2n1` [Compound 801, 6-[8-fluoro-2-methylimidazo[1,2-a]pyridin-6-yl]-2-(piperidin-4-yl)thieno[2,3-c]pyridin-7-one], the IC50 (SMN2 CJ mRNA) is reported as greater than 10000 nM, the IC50 (MYB mRNA) is reported as greater than 10000 nM and the AC50 (MYB mRNA) is reported as greater than 10000 nM. It also gave a GI50 at 72 h [1] greater than 10000 nM and an IC50 (MYB CJ mRNA) greater than 10000 nM.
Work on `Cc1cc(-c2cc3cnn(C4CCNCC4)c(=O)c3s2)cc2cn(C)nc12` [Compound 802, 2-(2,7-dimethyl-2H-indazol-5-yl)-6-(piperidin-4-yl)thieno[2,3-d]pyridazin-7(6H)-one] yielded an IC50 (SMN2 CJ mRNA) of less than 100 nM, an IC50 (MYB mRNA) of 100 to 1000 nM and an AC50 (MYB mRNA) of 100 to 1000 nM. It also gave a GI50 at 72 h [1] of 100 to 1000 nM and an IC50 (MYB CJ mRNA) of 100 to 1000 nM.
Work on `Cc1cn2cc(-c3cc4ccn(C5CCNCC5)c(=O)c4s3)cc(F)c2n1` [Compound 804, 2-(8-fluoro-2-methylimidazo[1,2-a]pyridin-6-yl)-6-(piperidin-4-yl)thieno[2,3-c]pyridin-7(6H)-one] yielded an IC50 (SMN2 CJ mRNA) of 100 to 1000 nM, an IC50 (MYB mRNA) of 100 to 1000 nM and an AC50 (MYB mRNA) of 100 to 1000 nM. It also gave a GI50 at 72 h [1] of 100 to 1000 nM and an IC50 (MYB CJ mRNA) of 100 to 1000 nM.
`Cc1cc(-c2cc3ccn(C4CCNCC4)c(=O)c3s2)cc2cn(C)nc12` [Compound 805, 2-(2,7-dimethyl-2H-indazol-5-yl)-6-(piperidin-4-yl)thieno[2,3-c]pyridin-7(6H)-one] gave an IC50 (SMN2 CJ mRNA) of less than 100 nM, an IC50 (MYB mRNA) of 100 to 1000 nM and an AC50 (MYB mRNA) of 100 to 1000 nM. For the same compound, the GI50 at 72 h [1] was 1000 to 10000 nM and the IC50 (MYB CJ mRNA) was 100 to 1000 nM.
Compound `Cc1cn2nc(-c3cc4ccn(C5CCNCC5)c(=O)c4s3)cc(C)c2n1` [Compound 806, 2-(2,8-dimethylimidazo[1,2-b]pyridazin-6-yl)-6-(piperidin-4-yl)thieno[2,3-c]pyridin-7(6H)-one] has an IC50 (SMN2 CJ mRNA) of 100 to 1000 nM, an IC50 (MYB mRNA) of 100 to 1000 nM and an AC50 (MYB mRNA) of 100 to 1000 nM. The GI50 at 72 h [1] was 100 to 1000 nM and the IC50 (MYB CJ mRNA) was 100 to 1000 nM.
Work on `Cc1cn2cc(-c3cc4ccn(C5CCN(C)CC5)c(=O)c4s3)cc(F)c2n1` [Compound 808, 2-(8-fluoro-2-methylimidazo[1,2-a]pyridin-6-yl)-6-(1-methylpiperidin-4-yl)thieno[2,3-c]pyridin-7(6H)-one] yielded an IC50 (SMN2 CJ mRNA) of less than 100 nM, an IC50 (MYB mRNA) of 100 to 1000 nM and an AC50 (MYB mRNA) of 100 to 1000 nM. It also gave a GI50 at 72 h [1] of 100 to 1000 nM and an IC50 (MYB CJ mRNA) of 100 to 1000 nM.
`Cc1cn2nc(-c3cc4ccn(C5CCN(C)CC5)c(=O)c4s3)cc(C)c2n1` [Compound 809] showed an IC50 (SMN2 CJ mRNA) of 100 to 1000 nM, an IC50 (MYB mRNA) of 1000 to 10000 nM and an AC50 (MYB mRNA) of 1000 to 10000 nM. The GI50 at 72 h [1] was 1000 to 10000 nM and the IC50 (MYB CJ mRNA) was 1000 to 10000 nM.
In the case of `Cc1cn2nc(-c3nc4cnn(C5CCNCC5)c(=O)c4s3)cc(C)c2n1` [Compound 810], the IC50 (SMN2 CJ mRNA) is reported as 100 to 1000 nM, the IC50 (MYB mRNA) is reported as 100 to 1000 nM and the AC50 (MYB mRNA) is reported as 100 to 1000 nM. For the same compound, the GI50 at 72 h [1] was 100 to 1000 nM and the IC50 (MYB CJ mRNA) was 100 to 1000 nM.
`Cc1nc(-c2nc3cnn(C4CCNCC4)c(=O)c3s2)cc2cn(C)nc12` [Compound 811] gave an IC50 (SMN2 CJ mRNA) of 100 to 1000 nM, an IC50 (MYB mRNA) of 1000 to 10000 nM and an AC50 (MYB mRNA) of 1000 to 10000 nM. For the same compound, the GI50 at 72 h [1] was 1000 to 10000 nM and the IC50 (MYB CJ mRNA) was 1000 to 10000 nM.
In the case of `Cc1cn2cc(-c3nc4cnn(C5CCNCC5)c(=O)c4s3)nc(C)c2n1` [Compound 812, 2-(2,8-dimethylimidazo[1,2-a]pyrazin-6-yl)-6-(piperidin-4-yl)thiazolo[4,5-d]pyridazin-7(6H)-one], the IC50 (SMN2 CJ mRNA) is reported as greater than 10000 nM, the IC50 (MYB mRNA) is reported as greater than 10000 nM and the AC50 (MYB mRNA) is reported as greater than 10000 nM. For the same compound, the GI50 at 72 h [1] was 100 to 1000 nM and the IC50 (MYB CJ mRNA) was greater than 10000 nM.
